Laboratory results: patent US7358258B2, “Prodrugs of an ERK protein kinase inhibitor” (Vertex Pharmaceuticals Incorporated, priority 2004, dated 2008)
≈ marks a conversion by molar mass, not a printed value. Where a name gives a salt, the structure may show the parent alone. Blank lines part the entries; values can stand above or below the molecule they belong to.

Assay: Water solubility at the designated pH
Format: physicochemical
Source text: As described herein, the present compounds are useful as prodrugs and, accordingly, impart improved physical and/or physiological characteristics over the parent compound. Such characteristics include half-life and water solubility. In certain embodiments, a compound of the present invention provides improvement with regard to one or more physical or physiological characteristics. In other embodiments, a compound of the present invention imparts improvement with regard to one or more physical and physiological characteristics. A summary of the results of comparison between certain compounds of the present invention and the parent compound is set forth in Table 3 below wherein all pharmacokinetic data reported was obtained in rat.
As used herein, the phrase “Relative AUC” refers to the ration of the area under the curve for a compound of the present invention and the area under the curve for the parent compound. Unless otherwise indicated, the data was obtained for the designated compound as the free base. The term “T½ (hr)” refers to the half life of the compound in hours. As used in Table 3, the term “Solubility” relates to the water solubility of the designated compound in mg per mL at the designated pH.

- solubility (water solubility at pH 3.3): 11500 µg/mL (≈ 17.9 mM)
Structure (SMILES): CC[C@H](COC(=O)[C@@H](N)C(C)C)Nc1ncc(C)c(-c2c[nH]c(C(=O)N[C@H](COC(=O)[C@@H](N)C(C)C)c3cccc(Cl)c3)c2)n1 [Compound I-10, 2-(S)-Amino-3-methyl-butyric acid 2-(4-{5-[2-(2-(S)-amino-3-methyl-butyryloxy)-1-(3-chloro-(S)-phenyl)-ethylcarbamoyl]-1H-pyrrol-3-yl}-5-methyl-pyrimidin-2-ylamino)-(S)-butyl ester]

- solubility (water solubility at pH 6.87): 12600 µg/mL (≈ 19.6 mM)
Structure (SMILES): CC[C@H](COC(=O)CCC(=O)O)Nc1ncc(C)c(-c2c[nH]c(C(=O)N[C@H](COC(=O)CCC(=O)O)c3cccc(Cl)c3)c2)n1 [Compound I-18, Succinic acid, mono-[2-(4-{5-[2-(3-carboxy-propionyloxy)-1-(3-chloro-(S)-phenyl)-ethylcarbamyl]-1H-pyrrol-3-yl}-5-methyl-pyrimidin-2-ylamino)-(S)-butyl]ester]

Continued, molecule first:

Structure (SMILES): CC[C@H](COC(C)=O)Nc1ncc(C)c(-c2c[nH]c(C(=O)N[C@H](COC(C)=O)c3cccc(Cl)c3)c2)n1 [I-1 (HCl salt)]
- solubility (water solubility at pH 2.2): 19000 µg/mL

Structure (SMILES): CC[C@H](COC(=O)[C@@H](NC)C(C)C)Nc1ncc(C)c(-c2c[nH]c(C(=O)N[C@H](COC(=O)[C@@H](NC)C(C)C)c3cccc(Cl)c3)c2)n1 [I-20 (HCl salt), 3-Methyl-2-methylamino-butyric acid 2-(4-{5-[1-(3-chloro-phenyl)-2-(3-methyl-2-methylamino-butyryloxy)-ethylcarbamoyl]-1H-pyrrol-3-yl}-5-methyl-pyrimidin-2-ylamino)-butyl ester, tris HCl salt]
- solubility (water solubility at pH 3.8): 7710 µg/mL

Structure (SMILES): CC[C@H](COC(=O)COCCOC)Nc1ncc(C)c(-c2c[nH]c(C(=O)N[C@H](COC(=O)COCCOC)c3cccc(Cl)c3)c2)n1 [I-21 Ms salt]
- solubility (water solubility at pH 2.5): 12400 µg/mL

Structure (SMILES): CC[C@H](COP(=O)(O)O)Nc1ncc(C)c(-c2c[nH]c(C(=O)N[C@H](COP(=O)(O)O)c3cccc(Cl)c3)c2)n1 [I-23 (Na salt)]
- solubility (water solubility at pH 7.15): 3800 µg/mL

Structure (SMILES): CCC(CO)Nc1ncc(C)c(-c2c[nH]c(C(=O)NC(CO)c3cccc(Cl)c3)c2)n1 (centres unmarked) [Parent, 4-[2-(1-hydroxymethyl-propylamino)-5-methyl-pyrimidin-4-yl]-1H-pyrrole-2-carboxylic acid [1-(3-chloro-phenyl)-2-hydroxy-ethyl]-amide, reference compound]
- solubility (water solubility at pH 1): 4700 µg/mL (≈ 10.6 mM)
- solubility (water solubility at pH 7): 15 µg/mL (≈ 0.0338 mM)
